Experimental data as given in PMC11249646, “Small-Molecule Disruptors of the Interaction between Calcium- and Integrin-Binding Protein 1 and Integrin αIIbβ3 as Novel Antiplatelet Agents” (ACS Pharmacology & Translational Science, 2024).

target: T1, CIB1 and αIIb interaction (CIB1-GST : F-αIIb peptide) (Homo sapiens, UniProt Q99828); test: FP assay, 1536-well qHTS format (primary and confirmatory screen); format: binding; conditions: not given
T1 construct: made in house; host or cells: BL-21 plus RIL cells (E. coli)
T1 sequence (Q99828 1-191): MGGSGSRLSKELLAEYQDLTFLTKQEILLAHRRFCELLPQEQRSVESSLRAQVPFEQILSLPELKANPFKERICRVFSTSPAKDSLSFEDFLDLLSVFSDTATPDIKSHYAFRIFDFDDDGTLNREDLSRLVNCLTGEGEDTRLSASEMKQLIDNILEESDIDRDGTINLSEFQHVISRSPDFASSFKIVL

Efficacy (%)	Structure (SMILES)
-29	c1ccc(C2Nc3cccc4cccc(c34)N2)cc1 [NCGC00182927-03]

same assay, conditions: qHTS primary screen hits, Table S2; negative = inhibition

Structure (SMILES)	Efficacy (%)
CCN(CC)C(=O)N[C@@H]1C=C2c3cccc4[nH]cc(c34)C[C@@H]2N(C)C1 [NCGC00179663-03]	-60
CN(C)c1ccc(-c2ccnc(O)c2N)cc1 [NCGC00181386-01]	-24
CO/N=C(\C(=O)N[C@@H]1C(=O)N2C(C(=O)O)=C(Cn3nnc(C)n3)CS[C@H]12)c1csc(N)n1 [NCGC00183016-01]	-171
Cl.Oc1ccc([C@H]2CNCc3c2ccc(O)c3O)cc1O [NCGC00183049-01]	-93
Cc1c(C)c2c(c(C)c1OC(=O)CCC(=O)OCCO)CC[C@@](C)(CCC[C@H](C)CCC[C@H](C)CCCC(C)C)O2 [NCGC00183103-01]	-36
O=C(O)C(F)(F)F.OCc1cn(Cc2ccc(O)c3ncccc23)cn1 [NCGC00183377-01]	-33
O=C(O)C(F)(F)F.O=C1c2ccccc2NC(c2ccc(-c3cccc([N+](=O)[O-])c3)o2)N1O (stereo not drawn) [NCGC00183384-01]	-23
O=C(O)C(F)(F)F.O=C1c2ccccc2NC(c2ccc(-c3ccc(C(F)(F)F)cc3)o2)N1O (stereo not drawn) [NCGC00183389-01]	-24
C=CCNc1oc(-c2ccc(F)cc2)nc1C#N.O=C(O)C(F)(F)F [NCGC00183411-01]	-27
CC(=O)NC(c1ccco1)c1cc(Br)c2cccnc2c1O.O=C(O)C(F)(F)F (stereo not drawn) [NCGC00183684-06]	-40
CCC(=O)NC(c1ccco1)c1cc(Br)c2cccnc2c1O (stereo not drawn) [NCGC00183688-01]	-28
CC(=O)NC(c1ccco1)c1cc(F)c2cccnc2c1O (stereo not drawn) [NCGC00183702-01]	-24

Second part, the compound after the results:

Efficacy (%)	Structure (SMILES)
-53	C=C1c2cccc(O)c2C(O)=C2C(=O)[C@]3(O)C(O)=C(C(N)=O)C(=O)[C@@H](N(C)C)[C@@H]3[C@@H](O)[C@H]12.Cl [NCGC00179358-04]
-60	CO/N=C(/C(=O)N[C@@H]1C(=O)N2C(C(=O)[O-])=C(C[n+]3ccn4ncccc43)CS[C@H]12)c1nsc(N)n1 [NCGC00181750-01]
-26	CCC(=O)NC(c1cccs1)c1ccc2cccnc2c1O (stereo not drawn) [NCGC00182903-03]
-29	Oc1cccc(C2=C3C=CC(=N3)C(c3cccc(O)c3)=C3C=CC(=N3)C(c3cccc(O)c3)=C3CCC(=N3)C(c3cccc(O)c3)=C3C=CC2=N3)c1 [NCGC00183015-01]
-54	CC(=O)Nc1sc2c(c1-c1nc3ccccc3s1)CCN(C(C)C)C2 [NCGC00183664-03]
-32	O.O=C(O)[C@@H]1[C@H]2C[C@H]3c4[nH]c5ccccc5c4CCN3C[C@@H]2CC[C@@H]1O [NCGC00178432-05]
-30	O=C(CN1C(=O)N/C(=C\c2cn(-c3cccc(C(=O)O)c3)cn2)C1=O)Nc1ccc(Cl)cc1 [NCGC00182401-01]
-34	CC(=O)NC(C)c1cc(Cl)c2cccnc2c1O (stereo not drawn) [NCGC00183686-01]
-41	Cl.Cl.O=C(O)c1cn(-c2ccc(F)cc2)c2cc(N3CCNCC3)c(F)cc2c1=O [NCGC00177995-02]
-82	CC1CCCC[C@H]2C(=O)C=C[C@H](O)[C@@H]2CC(=O)O1 (stereo partly drawn) [NCGC00169882-02]
-140	CCCC(=O)OC[C@@H](OC(=O)CCC)[C@@H](OC(=O)CCC)[C@H](Cn1c2nc(=O)[nH]c(=O)c-2nc2cc(C)c(C)cc21)OC(=O)CCC [NCGC00181300-01]
-101	C[n+]1c2cc(N)ccc2cc2ccc(N)cc21 [NCGC00178831-03]

same assay, conditions: qHTS primary screen hits, Table S2; negative sign = inhibitory curve

Structure (SMILES)	Curve Class
CO/N=C(\C(=O)N[C@@H]1C(=O)N2C(C(=O)O)=C(Cn3nnc(C)n3)CS[C@H]12)c1csc(N)n1 [NCGC00183016-01]	-3
Cl.Oc1ccc([C@H]2CNCc3c2ccc(O)c3O)cc1O [NCGC00183049-01]	-3
O=C(O)C(F)(F)F.O=C1c2ccccc2NC(c2ccc(-c3ccc(C(F)(F)F)cc3)o2)N1O (stereo not drawn) [NCGC00183389-01]	-2.4
CCC(=O)NC(c1ccco1)c1cc(Br)c2cccnc2c1O (stereo not drawn) [NCGC00183688-01]	-2.4
CC(=O)NC(c1ccco1)c1cc(F)c2cccnc2c1O (stereo not drawn) [NCGC00183702-01]	-2.4

Results, then the compound that gave them:

Curve Class	Structure (SMILES)
-2.4	CCC(=O)NC(c1cccs1)c1ccc2cccnc2c1O (stereo not drawn) [NCGC00182903-03]
-2.4	c1ccc(C2Nc3cccc4cccc(c34)N2)cc1 [NCGC00182927-03]
-1.2	CC1CCCC[C@H]2C(=O)C=C[C@H](O)[C@@H]2CC(=O)O1 (stereo partly drawn) [NCGC00169882-02]
-1.3	C[n+]1c2cc(N)ccc2cc2ccc(N)cc21 [NCGC00178831-03]

same assay, conditions: qHTS primary screen hits, Table S2; negative sign = inhibitory curve; several classes where COUNT > 1

Structure (SMILES)	Curve Class
CCN(CC)C(=O)N[C@@H]1C=C2c3cccc4[nH]cc(c34)C[C@@H]2N(C)C1 [NCGC00179663-03]	-2.4
CN(C)c1ccc(-c2ccnc(O)c2N)cc1 [NCGC00181386-01]	-2.4
Cc1c(C)c2c(c(C)c1OC(=O)CCC(=O)OCCO)CC[C@@](C)(CCC[C@H](C)CCC[C@H](C)CCCC(C)C)O2 [NCGC00183103-01]	-3
O=C(O)C(F)(F)F.OCc1cn(Cc2ccc(O)c3ncccc23)cn1 [NCGC00183377-01]	-2.2
O=C(O)C(F)(F)F.O=C1c2ccccc2NC(c2ccc(-c3cccc([N+](=O)[O-])c3)o2)N1O (stereo not drawn) [NCGC00183384-01]	-2.4
C=CCNc1oc(-c2ccc(F)cc2)nc1C#N.O=C(O)C(F)(F)F [NCGC00183411-01]	-2.4
CC(=O)NC(c1ccco1)c1cc(Br)c2cccnc2c1O.O=C(O)C(F)(F)F (stereo not drawn) [NCGC00183684-06]	-2.2

The next lines start with the values.

Curve Class	Structure (SMILES)
-2.4	C=C1c2cccc(O)c2C(O)=C2C(=O)[C@]3(O)C(O)=C(C(N)=O)C(=O)[C@@H](N(C)C)[C@@H]3[C@@H](O)[C@H]12.Cl [NCGC00179358-04]
-2.4	CO/N=C(/C(=O)N[C@@H]1C(=O)N2C(C(=O)[O-])=C(C[n+]3ccn4ncccc43)CS[C@H]12)c1nsc(N)n1 [NCGC00181750-01]
-2.4	Oc1cccc(C2=C3C=CC(=N3)C(c3cccc(O)c3)=C3C=CC(=N3)C(c3cccc(O)c3)=C3CCC(=N3)C(c3cccc(O)c3)=C3C=CC2=N3)c1 [NCGC00183015-01]
-2.2	CC(=O)Nc1sc2c(c1-c1nc3ccccc3s1)CCN(C(C)C)C2 [NCGC00183664-03]
-2.4	O.O=C(O)[C@@H]1[C@H]2C[C@H]3c4[nH]c5ccccc5c4CCN3C[C@@H]2CC[C@@H]1O [NCGC00178432-05]
-2.4	O=C(CN1C(=O)N/C(=C\c2cn(-c3cccc(C(=O)O)c3)cn2)C1=O)Nc1ccc(Cl)cc1 [NCGC00182401-01]
-2.4	CC(=O)NC(C)c1cc(Cl)c2cccnc2c1O (stereo not drawn) [NCGC00183686-01]
-3	Cl.Cl.O=C(O)c1cn(-c2ccc(F)cc2)c2cc(N3CCNCC3)c(F)cc2c1=O [NCGC00177995-02]
-1.1	CCCC(=O)OC[C@@H](OC(=O)CCC)[C@@H](OC(=O)CCC)[C@H](Cn1c2nc(=O)[nH]c(=O)c-2nc2cc(C)c(C)cc21)OC(=O)CCC [NCGC00181300-01]

same assay, conditions: qHTS primary screen hits, Table S2; read-out: IC50

Structure (SMILES)	IC50 [µM]
CCN(CC)C(=O)N[C@@H]1C=C2c3cccc4[nH]cc(c34)C[C@@H]2N(C)C1 [NCGC00179663-03]	50.1
CN(C)c1ccc(-c2ccnc(O)c2N)cc1 [NCGC00181386-01]	79.4
CO/N=C(\C(=O)N[C@@H]1C(=O)N2C(C(=O)O)=C(Cn3nnc(C)n3)CS[C@H]12)c1csc(N)n1 [NCGC00183016-01]	89.1
Cl.Oc1ccc([C@H]2CNCc3c2ccc(O)c3O)cc1O [NCGC00183049-01]	89.1
Cc1c(C)c2c(c(C)c1OC(=O)CCC(=O)OCCO)CC[C@@](C)(CCC[C@H](C)CCC[C@H](C)CCCC(C)C)O2 [NCGC00183103-01]	79.4
O=C(O)C(F)(F)F.OCc1cn(Cc2ccc(O)c3ncccc23)cn1 [NCGC00183377-01]	44.7
O=C(O)C(F)(F)F.O=C1c2ccccc2NC(c2ccc(-c3cccc([N+](=O)[O-])c3)o2)N1O (stereo not drawn) [NCGC00183384-01]	56.2
O=C(O)C(F)(F)F.O=C1c2ccccc2NC(c2ccc(-c3ccc(C(F)(F)F)cc3)o2)N1O (stereo not drawn) [NCGC00183389-01]	56.2
C=CCNc1oc(-c2ccc(F)cc2)nc1C#N.O=C(O)C(F)(F)F [NCGC00183411-01]	50.1
CC(=O)NC(c1ccco1)c1cc(Br)c2cccnc2c1O.O=C(O)C(F)(F)F (stereo not drawn) [NCGC00183684-06]	50.1
CCC(=O)NC(c1ccco1)c1cc(Br)c2cccnc2c1O (stereo not drawn) [NCGC00183688-01]	56.2
CC(=O)NC(c1ccco1)c1cc(F)c2cccnc2c1O (stereo not drawn) [NCGC00183702-01]	79.4

Further compounds by falling IC50, results first:

IC50 [µM]	Structure (SMILES)
56.2	C=C1c2cccc(O)c2C(O)=C2C(=O)[C@]3(O)C(O)=C(C(N)=O)C(=O)[C@@H](N(C)C)[C@@H]3[C@@H](O)[C@H]12.Cl [NCGC00179358-04]
56.2	CO/N=C(/C(=O)N[C@@H]1C(=O)N2C(C(=O)[O-])=C(C[n+]3ccn4ncccc43)CS[C@H]12)c1nsc(N)n1 [NCGC00181750-01]
50.1	CCC(=O)NC(c1cccs1)c1ccc2cccnc2c1O (stereo not drawn) [NCGC00182903-03]
50.1	c1ccc(C2Nc3cccc4cccc(c34)N2)cc1 [NCGC00182927-03]
50.1	Oc1cccc(C2=C3C=CC(=N3)C(c3cccc(O)c3)=C3C=CC(=N3)C(c3cccc(O)c3)=C3CCC(=N3)C(c3cccc(O)c3)=C3C=CC2=N3)c1 [NCGC00183015-01]
50.1	CC(=O)Nc1sc2c(c1-c1nc3ccccc3s1)CCN(C(C)C)C2 [NCGC00183664-03]
44.7	O.O=C(O)[C@@H]1[C@H]2C[C@H]3c4[nH]c5ccccc5c4CCN3C[C@@H]2CC[C@@H]1O [NCGC00178432-05]
44.7	O=C(CN1C(=O)N/C(=C\c2cn(-c3cccc(C(=O)O)c3)cn2)C1=O)Nc1ccc(Cl)cc1 [NCGC00182401-01]
44.7	CC(=O)NC(C)c1cc(Cl)c2cccnc2c1O (stereo not drawn) [NCGC00183686-01]
39.8	Cl.Cl.O=C(O)c1cn(-c2ccc(F)cc2)c2cc(N3CCNCC3)c(F)cc2c1=O [NCGC00177995-02]
28.2	CC1CCCC[C@H]2C(=O)C=C[C@H](O)[C@@H]2CC(=O)O1 (stereo partly drawn) [NCGC00169882-02]
2.8	CCCC(=O)OC[C@@H](OC(=O)CCC)[C@@H](OC(=O)CCC)[C@H](Cn1c2nc(=O)[nH]c(=O)c-2nc2cc(C)c(C)cc21)OC(=O)CCC [NCGC00181300-01]
1.1	C[n+]1c2cc(N)ccc2cc2ccc(N)cc21 [NCGC00178831-03]
